Results: patent US20070213359A1 (ACADIA Pharmaceuticals Inc., priority 2005, published 2007)
Like-named read-outs stand apart in the source and are kept apart here.

Target: Ghrelin receptor (Homo sapiens, UniProt Q92847)
Test: Receptor Selection and Amplification Technology (R-SAT) assay
Format: cell-based
Parameters: expressed in transfected cells; host or cells: NIH3T3
Details: for IC50: '—' not defined (nd used separately), read-out: RSAT pIC50 (converted); for Emax: read-out: RSAT Eff(%)
[1] = percent inhibition at saturating ligand, normalized to reference ligand Substance P analog = 100%

Sequence of Ghrelin receptor (Q92847 whole entry): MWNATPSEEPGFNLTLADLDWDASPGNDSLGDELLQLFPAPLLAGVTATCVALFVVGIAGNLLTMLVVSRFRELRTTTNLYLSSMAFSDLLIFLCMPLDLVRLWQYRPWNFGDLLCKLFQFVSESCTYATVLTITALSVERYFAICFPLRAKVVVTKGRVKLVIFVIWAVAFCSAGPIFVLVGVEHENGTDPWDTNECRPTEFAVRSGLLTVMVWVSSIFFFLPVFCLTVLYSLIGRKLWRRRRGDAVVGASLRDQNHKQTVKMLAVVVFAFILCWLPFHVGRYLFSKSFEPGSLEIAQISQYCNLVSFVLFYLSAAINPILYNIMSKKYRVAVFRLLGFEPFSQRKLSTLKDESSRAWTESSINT

Row | SMILES | IC50 [nM] | Emax [%] | Emax [1] [%]
1 | COc1cccc2c(C(=O)C3CC3)cn(CCCN3CCCN(CCc4ccccc4)CC3)c12 | 1.26 | 100 | 
2 | COc1cccc2c(C(=O)Cc3ccccc3)cn(CCCN3CCN(Cc4ccc(Cl)cc4Cl)CC3)c12 | 2 | 76 | 
3 | COc1cccc2c(C(=O)C3CC3)cn(CCCN3C4CCC3CC(CCc3ccccc3)C4)c12 (stereo not shown) | 2.51 | 109 | 
4 | CC(=O)c1cn(CCCN2CCCN(Cc3ccc(F)cc3)CC2)c2c(C)cccc12 | 2.51 | 95 | 
5 | COc1cccc2c(C(=O)NCc3cccc(Cl)c3)cn(CCCN3CCCN(Cc4ccc(F)cc4)CC3)c12 | 3.16 | 113 | 
6 | COc1cccc2c(C(=O)Cc3ccccc3)cn(CCCN3C4CCC3CC(Oc3ccccc3Cl)C4)c12 (stereo not shown) | 3.98 | 129 | 
7 | COc1cccc2c(C(=O)C3CC3)cn(CCCN3CCC4(CC3)CC(=O)c3ccccc3O4)c12 | 3.98 | 106 | 
8 | COc1cccc2c(C(=O)NCC(C)C)cn(CCCN3CCN(c4ncc(C(F)(F)F)cc4Cl)CC3)c12 | 31.6 | 100 | 
9 | COc1cccc2c(C(=O)NCc3cccc(Cl)c3)cn(CCCN3CCC(c4nc(-c5ccncc5)no4)CC3)c12 | 31.6 | 105 | 
10 | COc1cccc2c(C(=O)NCc3cccc(C)c3)cn(CCCN3CCN(c4ncc(C(F)(F)F)cc4Cl)CC3)c12 | 39.8 | 80 | 
11 | COc1cccc2c(C(=O)C3CC3)cn(CCCN3CCC(c4nc(-c5cccnc5)no4)CC3)c12 | 39.8 | 96 | 
12 | COc1cccc2c(C(=O)c3ccccc3)cn(CCCN3CCC(c4nc(-c5cccnc5)no4)CC3)c12 | 39.8 | 80 | 
13 | COc1cccc2c(C(=O)NCc3cccc(Cl)c3)cn(CCCN3CCN(c4ncc(C(F)(F)F)cc4Cl)CC3)c12 | 39.8 | 107 | 
14 | CC(=O)c1cn(CCCN2CCC(c3nc(-c4cccnc4)no3)CC2)c2c(C#N)cccc12 | 50.1 | 77 | 
15 | COc1cccc2c(C(=O)Cc3ccccc3)cn(CCCNCCOc3ccccc3)c12 | 50.1 | 92 | 
16 | CC(=O)c1cn(CCCNCCOc2ccccc2)c2c(Br)cccc12 | 50.1 | 132 | 
17 | COc1cccc2c(C(=O)Cc3ccccc3)cn(CCCNC3Cc4ccccc4C3)c12 | 50.1 | 103 | 
18 | COc1cccc2c(C(=O)NCc3cccc(Cl)c3)cn(CCCN3CCC4(CC3)CC(=O)c3ccccc3O4)c12 | 63.1 | 7.8 | 
19 | COc1cccc2c(C(=O)NCC(C)C)cn(CCCN3CCC(c4nc(-c5cccnc5)no4)CC3)c12 | 63.1 | 93 | 
20 | COc1cccc2c(C(=O)NCC(C)C)cn(CCCN3C4CCC3CC(CCc3ccc(Cl)cc3)C4)c12 (stereo not shown) | 63.1 | 85 | 
21 | COc1cccc2c(C(=O)c3ccccc3)cn(CCCN3CCCC(Cc4ccccc4Cl)C3)c12 (stereo not shown) | 63.1 | 82 | 
22 | COc1cccc2c(C(=O)C3CC3)cn(CCCN3C4CCC3CC(Oc3ccc(F)cc3)C4)c12 (stereo not shown) | 63.1 | 131 | 
23 | COc1cccc2c(C(=O)Cc3ccccc3)cn(CCCN3CCC4(CC3)CC(=O)c3ccccc3O4)c12 | 79.4 | 98 | 
24 | COc1cccc2c(C(=O)NCC(C)C)cn(CCCN3CCC(C(=O)c4ccccc4)CC3)c12 | 79.4 | 114 | 
25 | COc1cccc2c(C(=O)NCc3cccc(C)c3)cn(CCCN3CCC(C(=O)c4ccccc4)CC3)c12 | 100 | 126 | 

Row | SMILES | IC50 [nM] | Emax [%] | Emax [1] [%]
26 | CC(=O)c1cn(CCCN2CCCN(CCc3ccccc3)CC2)c2c(C)cccc12 | 100 | 102 | 
27 | CC(C)CC(=O)c1cn(CCCN2CCC(c3nc4c(s3)C=CCC4)CC2)c2ccccc12 | 126 | 108 | 
28 | COc1cccc2c(C(=O)NCC(C)C)cn(CCCN3CCN(CCOc4ccccc4)CC3)c12 | 126 | 118 | 
29 | CCc1cccc2c(C(C)=O)cn(CCCN3CCC4(CC3)CC(=O)c3ccccc3O4)c12 | 126 | 85 | 
30 | COc1cccc2c(C(=O)C3CC3)cn(CCCN3CCCC(Oc4ccc(Cl)cc4)C3)c12 (stereo not shown) | 126 | 37 | 
31 | COc1cccc2c(C(=O)NCC(C)C)cn(CCCN3C4CCC3CC(CC(=O)c3ccc(Cl)cc3)C4)c12 (stereo not shown) | 126 | 128 | 
32 | COc1cccc2c(C(=O)NCc3cccc(Cl)c3)cn(CCCN3CCC(Oc4ccccc4Cl)CC3)c12 | 126 | 125 | 
33 | COc1ccccc1C1CCN(CCCn2cc(C(=O)NCc3cccc(C)c3)c3cccc(OC)c32)CC1 | 126 | 127 | 
34 | COc1cccc2c(C(=O)NCc3cccc(C)c3)cn(CCCN3CCC4(CC3)CC(=O)c3ccccc3O4)c12 | 158 | 63 | 
35 | CC(=O)c1cn(CCCNC2Cc3ccccc3C2)c2c(C)cccc12 | 158 | 70 | 
36 | COc1cccc2c(C(=O)NCC(C)C)cn(CCCNCCOc3ccccc3)c12 | 158 | 118 | 
37 | COc1cccc2c(C(=O)C3CC3)cn(CCCN3C4CCC3CC(Oc3ccccc3Cl)C4)c12 (stereo not shown) | 158 | 130 | 
38 | CC(=O)c1cn(CCCN2CCN(c3nc(-c4cccnc4)no3)CC2)c2c(C)cccc12 | 200 | 110 | 
39 | CCCCC[C@H]1C[C@H]2CC[C@@H](C1)N2CCCn1cc(C(=O)c2ccccc2)c2cccc(OC)c21 | 200 | 91 | 
40 | CCCCC[C@H]1C[C@H]2CC[C@@H](C1)N2CCCn1cc(C(=O)C2CC2)c2cccc(OC)c21 | 200 | 101 | 
41 | COc1cccc2c(C(=O)c3ccccc3)cn(CCCN3CCC4(CC3)CC(=O)c3ccccc3O4)c12 | 200 | 60 | 
42 | COc1ccc2c(C(C)=O)cn(CCCN3CCC(c4ccccc4OC)CC3)c2c1 | 251 | 72 | 
43 | COc1cccc2c(C(=O)c3ccccc3)cn(CCCN3C4CCC3CC(CC(=O)c3ccc(Cl)cc3)C4)c12 (stereo not shown) | 251 | 143 | 
44 | COc1cccc2c(C(=O)C3CC3)cn(CCCN3CCC(CCOc4ccc(Cl)cc4)CC3)c12 | 316 | 89 | 
45 | COc1cccc2c(C(=O)NCc3cccc(Cl)c3)cn(CCCN3CCC(Oc4ccc(F)cc4)CC3)c12 | 316 | 106 | 
46 | CCCCC[C@H]1C[C@H]2CC[C@@H](C1)N2CCCn1cc(C(C)=O)c2cccc(Cl)c21 | 316 | 72 | 
47 | COc1cccc2c(C(=O)c3ccccc3)cn(CCCNC3Cc4ccccc4C3)c12 | 316 | 93 | 
48 | COc1cccc2c(C(=O)NCc3cccc(Cl)c3)cn(CCCN3C4CCC3CC(CC(=O)c3ccc(Cl)cc3)C4)c12 (stereo not shown) | 316 | 76 | 
49 | COc1cccc2c(C(=O)Cc3ccccc3)cn(CCCN3CCCC(Oc4ccc(Cl)cc4)C3)c12 (stereo not shown) | 316 | 86 | 
50 | CC(C)CC(=O)c1cn(CCCN2CCN(C(C)c3ccccc3)CC2)c2ccccc12 (stereo not shown) | 398 | 106 | 

Row | SMILES | IC50 [nM] | Emax [%] | Emax [1] [%]
51 | CC(=O)c1cn(CCCCN2CCC(Oc3ccccc3Cl)CC2)c2ccccc12 | 398 | 46 | 
52 | COc1cccc2c(C(=O)C3CC3)cn(CCCN3CCC(C(=O)c4ccccc4)CC3)c12 | 398 | 100 | 
53 | COc1cccc2c(C(=O)C3CC3)cn(CCCN3CCC(Oc4ccc(Cl)cc4)CC3)c12 | 501 | 90 | 
54 | CC(=O)c1c(C)n(CCCN2CCCN(CCc3ccccc3)CC2)c2c(Br)cccc12 | 501 | 42 | 
55 | CC(=O)c1cn(CCCN2C3CCC2CC(Oc2ccc(Cl)cc2)C3)c2ccccc12 (stereo not shown) | 501 | 108 | 
56 | COc1cccc2c(C(=O)c3ccccc3)cn(CCCN3CCC(C(=O)c4ccccc4)CC3)c12 | 501 | 102 | 
57 | COc1cccc2c(C(=O)C3CC3)cn(CCCN3CCC(c4nc5ccccc5s4)CC3)c12 | 501 | 88 | 
58 | CCCOC1CCN(CCCn2cc(C(C)=O)c3ccccc32)CC1 | 631 | 112 | 
59 | COc1ccccc1C1CCN(CCCn2cc(C(=O)NCc3cccc(Cl)c3)c3cccc(OC)c32)CC1 | 631 | 127 | 
60 | COc1ccc2[nH]c3c(c2c1)CCN(CCCn1cc(C(C)=O)c2ccc(OC)cc21)C3 | 794 |  | 69
61 | COc1ccc2[nH]c3c(c2c1)CCN(CCCn1cc(C(C)=O)c2ccccc21)C3 | 794 |  | 76
62 | CCCCC1CCN(CCCCn2cc(C(C)=O)c3ccccc32)CC1 | 794 | 113 | 
63 | COc1cccc2c(C(C)=O)cn(CCCN3CCC(N4CCOCC4)CC3)c12 | 1000 | 95 | 
64 | CCC(=O)c1cn(CCCN2CCC(O)(Cc3ccccc3)CC2)c2ccccc12 | 1000 | 73 | 
65 | CC(=O)c1cn(CCCN2C3CCC2CC(CC(=O)c2ccccc2)C3)c2c(Cl)cccc12 (stereo not shown) | 1580 | 85 | 
66 | COc1cccc2c(C(C)=O)cn(CCCN3CCN(CC(=O)N4CCOCC4)CC3)c12 | 1580 | 37 | 
67 | COc1cccc2c(C(=O)NCc3cccc(Cl)c3)cn(CCCN3CCCC(Cc4ccccc4Cl)C3)c12 (stereo not shown) | 2000 | 47 | 
68 | COc1cccc2c(C(=O)C3CC3)cn(CCCN3C4CCC3CC(CC(=O)c3ccccc3)C4)c12 (stereo not shown) | 2000 | 86 | 
69 | COc1cccc2c(C(=O)NCc3cccc(Cl)c3)cn(CCCN3CCC(C(=O)c4ccccc4)CC3)c12 | 2510 | 114 | 
70 | CC(=O)c1cn(CCCN2CCC(C(=O)c3ccccc3)CC2)c2cc(Br)ccc12 | 2510 | 36 | 
71 | CCCOC1CCN(CCn2cc(C(C)=O)c3ccccc32)CC1 | 3160 | 40 | 
72 | CCOC(=O)C1CCN(CCn2cc(C(C)=O)c3ccccc32)CC1 | 3980 | 72 | 
73 | COc1ccccc1C1CCN(CCn2cc(C(C)=O)c3ccccc32)CC1 | 5010 | 44 | 
74 | CCOC(=O)C1CCN(CCCn2cc(C(=O)C(F)(F)F)c3ccccc32)CC1 | 5010 | 64 | 
